For one test, the target named is T1, CCK receptor (pancreas) (Rattus norvegicus, UniProt P30551).
T1 construct: The whole pancreas was dissected free of fat tissue and was homogenized; from tissue; host or cells: rat pancreas membranes (Sprague-Dawley)
T1 sequence (P30551 1-444): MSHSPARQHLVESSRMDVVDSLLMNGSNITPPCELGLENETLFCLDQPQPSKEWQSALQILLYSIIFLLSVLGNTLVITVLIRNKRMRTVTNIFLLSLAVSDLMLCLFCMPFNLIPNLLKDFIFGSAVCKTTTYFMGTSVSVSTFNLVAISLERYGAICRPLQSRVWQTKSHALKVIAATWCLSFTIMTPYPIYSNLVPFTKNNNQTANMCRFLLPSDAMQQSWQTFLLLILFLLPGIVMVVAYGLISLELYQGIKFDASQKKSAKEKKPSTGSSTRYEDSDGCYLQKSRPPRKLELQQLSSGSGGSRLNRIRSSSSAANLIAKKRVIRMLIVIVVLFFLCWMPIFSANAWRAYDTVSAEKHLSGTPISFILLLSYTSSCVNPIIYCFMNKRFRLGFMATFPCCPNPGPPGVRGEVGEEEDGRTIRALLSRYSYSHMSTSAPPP
In words: CCK Receptor Binding (Pancreas): inhibition of ^125 I-CCK-33 binding. Also noted: species or system Male Sprague-Dawley rats. The settings on record: rat pancreas membranes, ^125 I-CCK-33, 37° C., 30 minutes. The gist of the method:
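Bound ^125I-CCK-33 was counted in pellets after a 30 min, 37° C incubation followed by centrifugation. Membranes came from male Sprague-Dawley rat pancreas, assayed in Tris HCl pH 7.7 containing DTT, bacitracin, PMSF and o-phenanthroline. For Scatchard analysis, tracer was diluted with rising unlabelled CCK-33.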

Test [1] concerns the target T2, CCK receptor (brain, cerebral cortex) (Cavia porcellus, UniProt H0VZC5).
T2 construct: Cerebral cortex was dissected and used as a receptor source; from tissue; host or cells: guinea pig cerebral cortex membranes (male Hartley)
T2 sequence (H0VZC5 1-426): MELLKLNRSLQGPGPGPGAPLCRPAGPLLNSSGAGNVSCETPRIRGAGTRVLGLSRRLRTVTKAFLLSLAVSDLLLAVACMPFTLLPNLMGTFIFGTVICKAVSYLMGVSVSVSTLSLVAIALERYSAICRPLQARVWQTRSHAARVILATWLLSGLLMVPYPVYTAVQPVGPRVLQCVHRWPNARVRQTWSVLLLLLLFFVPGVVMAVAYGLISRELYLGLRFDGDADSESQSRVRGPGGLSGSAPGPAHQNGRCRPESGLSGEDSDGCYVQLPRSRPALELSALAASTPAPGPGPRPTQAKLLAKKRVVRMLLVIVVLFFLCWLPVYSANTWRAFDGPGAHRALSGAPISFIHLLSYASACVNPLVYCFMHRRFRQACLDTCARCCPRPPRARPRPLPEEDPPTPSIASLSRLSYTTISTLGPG
In words: biochemical. Format: binding, Male Hartley guinea pigs. The settings on record: guinea pig cerebral cortex, ^125 I-CCK-33, 25° C., 2 hours. Summed up:
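Binding of [radiolabeled] CCK-33 measured by gamma counting of centrifuged pellets after 2 h at 25°C. Membranes came from guinea pig brain cortex, suspended in 10 mM HEPES, 5 mM MgCl2, 1 mM EGTA, 0.25 mg/ml bacitracin, 0.4% BSA.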

Test [2] addresses T3, Gastrin receptor (gastric glands) (Cavia porcellus, UniProt H0VZC5).
T3 construct: The washed guinea pig gastric glands prepared as above were resuspended; from tissue; host or cells: guinea pig gastric mucosal glands (male Hartley)
T3 sequence (H0VZC5 1-426): T2 sequence (H0VZC5 1-426)
In words: Gastrin Receptor Binding in Guinea Pig Gastric Glands. The following applies: 25° C., 30 minutes. Also noted: species or system guinea pig (male Hartley).

Where [3] appears, read: ^125 I-gastrin, read-out: IC50 ^125 I-Gastrin Gastric Glands.
Where [4] appears, read: read-out: IC50 ^125 I-CCK Pancreas.
Where [5] appears, read: IC50 ^125 I-Gastrin Gastric Glands.
The mark [6] stands for this setting: read-out: IC50 ^125 I-CCK Brain.

Among the data in patent US4820834A, “Benzodiazepine analogs” (priority 1987, dated 1989) are IC50 values, retold here.

As usually defined, the IC50 is the concentration that inhibits the measured activity by half.

Each structure is given as a SMILES string. Read-outs that look alike come from different tables or passages of the source.

On to `C[C@@H](NC(=O)NC1N=C(c2ccccc2)c2ccccc2N(C)C1=O)c1ccccc1` (stereo partly drawn) [Example 261, N-(2,3-Dihydro-1-methyl-2-oxo-5-phenyl-1H-1,4-benzodiazepin-3-yl)-N'-((R)1-phenylethyl)-urea], for which the IC50 on CCK receptor (pancreas) (IC50 ^125 I-CCK Pancreas) was 0.43 µM; in test [1] (IC50 ^125 I-CCK Brain), 11 µM; in test [2] (setting [3]), 3.2 µM.

Consider `CN1C(=O)C(NC(=O)NC2CCCCC2)N=C(c2ccccc2)c2ccccc21` (stereo not drawn) [Example 262, N-Cyclohexyl-N'-(2,3-dihydro-1-methyl-2-oxo-5-phenyl-1H-1,4-benzodiazepin-3-yl)-urea], for which the IC50 was 2.4 µM at CCK receptor (pancreas) (setting [4]), 3 µM in test [1] (IC50 ^125 I-CCK Brain) and 0.39 µM in test [2] (setting [5]).

Turning to `CN1C(=O)C(NC(=O)Nc2cccc([N+](=O)[O-])c2)N=C(c2ccccc2)c2ccccc21` (stereo not drawn) [Example 264, N-(2,3-Dihydro-1-methyl-2-oxo-5-phenyl-1H-1,4-benzodiazepin-3-yl)-N'-(3-nitrophenyl)-urea], the values for the concentration for half-maximal inhibition (IC50) (at CCK receptor (pancreas) (setting [4]); in test [1] (IC50 ^125 I-CCK Brain); in test [2] (setting [5])) were 0.034 µM, 0.011 µM and 0.006 µM, respectively.

As for `CN1C(=O)C(NC(=O)Nc2cccc(Cl)c2)N=C(c2ccccc2)c2ccccc21` (stereo not drawn) [Example 265, N-(3-Chlorophenyl)-N'-(2,3-dihydro-1-methyl-2-oxo-5-phenyl-1H-1,4-benzodiazepin-3-yl)urea], the results for the IC50 (on CCK receptor (pancreas) (setting [4]); in test [1] (IC50 ^125 I-CCK Brain); in test [2] (setting [5])) were 0.0082 µM, 0.0098 µM and 0.0031 µM, respectively.

In the case of `COc1cccc(NC(=O)N[C@@H]2N=C(c3ccccc3)c3ccccc3N(C)C2=O)c1` [Example 266, (R)-N-(2,3-Dihydro-1-methyl-2-oxo-5-phenyl-1H-1,4-benzodiazepin-3-yl)-N'-(3-methoxyphenyl)-urea], the figures for the IC50 (at CCK receptor (pancreas) (setting [4]); in test [1] (IC50 ^125 I-CCK Brain); in test [2] (setting [3])) were 0.6 µM, 0.0022 µM and 0.0013 µM, respectively.

Regarding `COc1cccc(NC(=O)N[C@H]2N=C(c3ccccc3)c3ccccc3N(C)C2=O)c1` [Example 267, (S)-N-(2,3-Dihydro-1-methyl-2-oxo-5-phenyl-1H-1,4-benzodiazepin-3-yl)-N'-(3-methoxyphenyl)-urea], the IC50 was determined as 0.0013 µM at CCK receptor (pancreas) (setting [4]), 0.29 µM in test [1] (IC50 ^125 I-CCK Brain) and 0.19 µM in test [2] (setting [3]).

Take `COc1cccc(CC(=O)N[C@H]2N=C(c3ccccc3)c3ccccc3N(C)C2=O)c1` [Example 268, (S)-N-(2,3-Dihydro-1-methyl-2-oxo-5-phenyl-1H-1,4-benzodiazepin-3-yl)-3-methoxybenzeneacetamide]: the values for the IC50 (at CCK receptor (pancreas) (IC50 ^125 I-CCK Pancreas); in test [1] (setting [6]); in test [2] (setting [3])) were 0.33 µM, 2.1 µM and 0.42 µM, respectively.

Turning to `COc1cccc(CC(=O)N[C@@H]2N=C(c3ccccc3)c3ccccc3N(C)C2=O)c1` [Example 269, (R)-N-(2,3-Dihydro-1-methyl-2-oxo-5-phenyl-1H-1,4-benzodiazepin-3-yl)-3-methoxybenzenacetamide], the IC50 on CCK receptor (pancreas) (IC50 ^125 I-CCK Pancreas) worked out at 45 µM; in test [1] (setting [6]) it was 0.69 µM; in test [2] (setting [3]) it was 0.45 µM.

Consider `CN1C(=O)C(NC(=O)Nc2ccccc2[N+](=O)[O-])N=C(c2ccccc2)c2ccccc21` (stereo not drawn) [Example 270, N-(2,3-Dihydro-1-methyl-2-oxo-5-phenyl-1H-1,4-benzodiazepin-3-yl)-N'-(2-nitrophenyl)-urea], for which the figures for the IC50 (at CCK receptor (pancreas) (setting [4]); in test [1] (IC50 ^125 I-CCK Brain); in test [2] (setting [5])) were 0.003 µM, 1.2 µM and 0.5 µM, respectively.

Consider `CN1C(=O)C(NC(=O)Nc2cccc(F)c2)N=C(c2ccccc2)c2ccccc21` (stereo not drawn) [Example 271, N-(2,3-Dihydro-1-methyl-2-oxo-5-phenyl-1H-1,4-benzodiazepin-3-yl)-N'-(3-fluorophenyl)-urea], for which the IC50 at CCK receptor (pancreas) (setting [4]) worked out at 0.01 µM; in test [1] (IC50 ^125 I-CCK Brain) it was 0.054 µM; in test [2] (setting [5]), 0.01 µM.

On to `CN1C(=O)C(NC(=O)Nc2cccc(Br)c2)N=C(c2ccccc2)c2ccccc21` (stereo not drawn) [Example 272, N-(3-Bromophenyl)-N'-(2,3-dihydro-1-methyl-2-oxo-5-phenyl-1H-1,4-benzodiazepin-3-yl)-urea], for which the 50% inhibitory concentration (IC50) was determined as 0.0044 µM at CCK receptor (pancreas) (setting [4]), 0.005 µM in test [1] (IC50 ^125 I-CCK Brain) and 0.0028 µM in test [2] (setting [5]).

As for `CN1C(=O)C(NC(=O)Nc2cccc3ccccc23)N=C(c2ccccc2)c2ccccc21` (stereo not drawn) [Example 273, N-(2,3-Dihydro-1-methyl-2-oxo-5-phenyl-1H-1,4-benzodiazepin-3-yl)-N'-1-naphthalenyl-urea], the IC50 on CCK receptor (pancreas) (IC50 ^125 I-CCK Pancreas) was determined as 0.0086 µM; in test [1] (setting [6]), 0.079 µM; in test [2] (setting [3]), 0.057 µM.

Consider `COc1cc(NC(=O)NC2N=C(c3ccccc3)c3ccccc3N(C)C2=O)cc(OC)c1` (stereo not drawn) [Example 274], for which the IC50 at CCK receptor (pancreas) (setting [4]) stood at 0.31 µM; in test [1] (setting [6]), 2.3 µM; in test [2] (setting [3]) it was 1.6 µM.

Regarding `COc1cccc(NC(=O)NC2N=C(c3ccccc3)c3ccccc3NC2=O)c1` (stereo not drawn) [Example 275, N-(2,3-Dihydro-2-oxo-5-phenyl-1H-1,4-benzodiazepin-3-yl)-N'-(3-methoxyphenyl)-urea], the IC50 at CCK receptor (pancreas) (IC50 ^125 I-CCK Pancreas) is 0.02 µM; in test [1] (IC50 ^125 I-CCK Brain), 0.11 µM; in test [2] (setting [5]), 0.12 µM.

For the compound `CN1C(=O)[C@@H](NC(=O)Nc2ccccc2Cl)N=C(c2ccccc2)c2ccccc21` [Example 276, (S)-N-(2,3-Dihydro-1-methyl-2-oxo-5-phenyl-1H-1,4-benzodiazepin-3-yl)-N'-(2-chlorophenyl)-urea], the half-maximal inhibitory concentration (IC50) was determined as 0.00039 µM on CCK receptor (pancreas) (IC50 ^125 I-CCK Pancreas), 0.28 µM in test [1] (setting [6]) and 0.24 µM in test [2] (setting [3]).

With `CN1C(=O)C(NC(=S)Nc2ccccc2)N=C(c2ccccc2)c2ccccc21` (stereo not drawn) [Example 277, N-(2,3-Dihydro-1-methyl-2-oxo-5-phenyl-1H-1,4-benzodiazepin-3-yl)-N'-phenylthiourea], the IC50 at CCK receptor (pancreas) (IC50 ^125 I-CCK Pancreas) was 0.018 µM; in test [1] (setting [6]), 0.86 µM; in test [2] (setting [3]), 2.6 µM.

With `COc1ccccc1NC(=O)NC1N=C(c2ccccc2)c2ccccc2N(C)C1=O` (stereo not drawn) [Example 278, N-(2,3-Dihydro-1-methyl-2-oxo-5-phenyl-1H-1,4-benzodiazepin-3-yl)-N'-(2-methoxyphenyl)-urea], the results for the IC50 (at CCK receptor (pancreas) (setting [4]); in test [1] (setting [6]); in test [2] (setting [3])) were 0.6 µM, 1.2 µM and 1 µM, respectively.

For `CC(C)(C)C(=O)OCOC(=O)CN1C(=O)C(NC(=O)c2cc3ccccc3[nH]2)N=C(c2ccccc2)c2ccccc21` (stereo not drawn) [Example 279, 1-Pivaloyloxymethyloxycarbonylmethyl-1,3-dihydro-3-(2-indolecarbonylamino)-5-phenyl-2H-1,4-benzodiazepin-2-one], the IC50 stood at 0.011 µM on CCK receptor (pancreas) (IC50 ^125 I-CCK Pancreas), 0.31 µM in test [1] (setting [6]) and 0.6 µM in test [2] (setting [3]).

`COc1cccc(NC(=O)NC2N=C(c3ccccc3)c3ccccc3NC2=S)c1` (stereo not drawn) [Example 280, N-(2,3-Dihydro-5-phenyl-2-thioxo-1H-1,4-benzodiazepin-3-yl)-N'-(3-methoxyphenyl)-urea]: the IC50 on CCK receptor (pancreas) (IC50 ^125 I-CCK Pancreas) stood at 0.015 µM; in test [1] (IC50 ^125 I-CCK Brain) it was 0.97 µM; in test [2] (setting [5]), 0.25 µM.

`CN1C(=O)[C@H](NC(=O)Nc2cccc(Br)c2)N=C(c2ccccc2)c2ccccc21` [Example 282, (R)-N-(2,3-Dihydro-1-methyl-2-oxo-5-phenyl-1H-1,4-benzodiazepin-3-yl)-N'-(3-bromophenyl)-urea]: the IC50 is 0.84 µM at CCK receptor (pancreas) (setting [4]), 0.0038 µM in test [1] (IC50 ^125 I-CCK Brain) and 0.0016 µM in test [2] (setting [5]).

On to `COc1cccc(NC(=O)NC2N=C(c3ccccc3)c3ccccc3N(CC(=O)N3CCCC3)C2=O)c1` (stereo not drawn) [Example 284, 1-{[3-[(((3-Methoxyphenyl)amino)carbonyl)amino]-2,3-dihydro-2-oxo-5-phenyl-1H-1,4-benzodiazepin-1-yl]acetyl}pyrrolidine], for which the IC50 at CCK receptor (pancreas) (IC50 ^125 I-CCK Pancreas) turned out to be 0.017 µM; in test [1] (IC50 ^125 I-CCK Brain), 0.00034 µM; in test [2] (setting [5]) it was 0.0005 µM.
